# From patent US20210395256A1, “TYROSINE KINASE INHIBITORS, COMPOSITIONS AND METHODS THERE OF” (Betta Pharmaceuticals Co., Ltd., priority 2018, published 2021)
# What was measured:
# [1] = target: T1, CYP1A2 (Homo sapiens, UniProt P05177); assay: Cytochrome P450 inhibition, CYP1A2; assay type: in vitro ADME; details: probe Phenacetin (40 μM); 10 μM compound, human liver microsomes, substrate Phenacetin; read-out: Inhibition percentage CYP1A2 (Phenacetin)
# T1 construct: from tissue; host or cells: human liver microsomes
# T1 sequence (P05177 1-516): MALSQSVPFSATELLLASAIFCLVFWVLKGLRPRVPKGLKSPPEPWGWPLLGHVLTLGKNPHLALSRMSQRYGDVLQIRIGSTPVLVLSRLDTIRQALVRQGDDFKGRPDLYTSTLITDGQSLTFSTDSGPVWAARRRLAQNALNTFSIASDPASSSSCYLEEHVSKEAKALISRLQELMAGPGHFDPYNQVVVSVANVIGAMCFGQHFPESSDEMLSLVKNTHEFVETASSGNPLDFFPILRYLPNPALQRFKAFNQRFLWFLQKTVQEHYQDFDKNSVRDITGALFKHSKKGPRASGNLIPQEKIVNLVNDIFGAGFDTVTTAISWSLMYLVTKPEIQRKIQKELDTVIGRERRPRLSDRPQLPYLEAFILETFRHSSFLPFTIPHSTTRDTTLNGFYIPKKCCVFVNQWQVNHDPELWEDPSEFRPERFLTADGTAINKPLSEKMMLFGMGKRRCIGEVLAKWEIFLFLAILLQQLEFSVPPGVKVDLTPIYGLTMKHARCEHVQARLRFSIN
# Experimental: Example 205 Cytochrome P450 Measurements The cytochrome P450 was measured as the following procedure: 1) A master solution containing phosphate buffer, ultra-pure H2O, MgCl2 solution and human liver microsomes was made according to Table 17, and then 1 μL of 2 mM of compound solution or 1 μL of DMSO (as without inhibitor control) was added to the above master solution. The final concentration of test compounds or control compounds was 10 μM. [table] 2) For CYP1A2 inhibition, 1 μL of specific drug substrate (Phenacetin: 8 mM) was added at the final concentration of 40 μM to the above solution. 8) The mixture was pre-warmed at 37° C. for 5 min. The reaction was started by the addition of 20 μL of 10 mM NADPH solution at the final concentration of 1 mM and carried out at 37° C. 9) The reaction was stopped by addition of 300 μL of cold quench solution (methanol containing internal standards (1S, 500 nM Labetalol, 100 nM Alprazolam and 2 μM Ketoprofen) at the designated time points (Phenacetin: 20 min; Paclitaxel: 10 min; Tolbutamide: 20 min; (s)-Mephenytoin: 20 min; Midazolam: 5 min; Testosterone: 10 min). Samples were vortexed for 5 minutes and centrifuged at 3220 g for 40 minutes at 4° C. And then 100 μL of the supernatant was transferred to a new 96-well plate with 100 μL or 200 μL water (depends on the LC-MS signal response and peak shape) for LC-MS/MS analysis. All experiments were performed in duplicates.
# [2] = target: NTRK1-G595R (Homo sapiens, UniProt P04629, G595R); assay: NTRK1-G595R cell proliferation assay (Table 13); assay type: cell-based
# Sequence of NTRK1-G595R (P04629 33-796 G595R): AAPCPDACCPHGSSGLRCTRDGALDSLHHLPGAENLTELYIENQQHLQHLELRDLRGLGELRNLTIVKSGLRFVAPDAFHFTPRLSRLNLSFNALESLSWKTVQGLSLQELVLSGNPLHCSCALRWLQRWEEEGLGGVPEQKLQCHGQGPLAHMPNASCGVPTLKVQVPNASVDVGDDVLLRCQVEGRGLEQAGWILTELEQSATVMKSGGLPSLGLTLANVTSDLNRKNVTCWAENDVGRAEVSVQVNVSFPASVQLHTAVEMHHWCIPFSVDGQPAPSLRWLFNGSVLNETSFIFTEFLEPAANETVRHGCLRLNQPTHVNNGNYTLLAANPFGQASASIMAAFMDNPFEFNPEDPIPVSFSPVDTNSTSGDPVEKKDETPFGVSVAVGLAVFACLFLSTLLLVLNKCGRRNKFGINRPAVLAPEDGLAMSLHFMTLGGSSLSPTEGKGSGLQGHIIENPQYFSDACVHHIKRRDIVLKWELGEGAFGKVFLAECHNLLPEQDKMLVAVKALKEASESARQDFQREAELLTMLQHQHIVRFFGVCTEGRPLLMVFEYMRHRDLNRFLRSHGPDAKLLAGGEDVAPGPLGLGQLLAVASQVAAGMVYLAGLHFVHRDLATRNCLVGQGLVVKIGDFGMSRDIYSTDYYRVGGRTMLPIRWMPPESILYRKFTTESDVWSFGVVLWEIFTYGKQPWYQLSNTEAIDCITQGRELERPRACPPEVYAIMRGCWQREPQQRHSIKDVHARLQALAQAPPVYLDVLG
SMILES,"inhibition at 20 min, 10 µM [1]",IC50 [2]
"Cc1nnc(-c2cnn3ccc(N4CCCC4c4cc(F)ccc4F)nc23)[nH]1 (centres unmarked) [Comparative compound A, 5-[2-(2,5-Difluorophenyl)pyrrolidin-1-yl]-3-(5-methyl-1H-1,2,4-triazol-3-yl)pyrazolo[1,5-a]pyrimidine, reference compound]",29%,–
"C[C@H](O)c1nnc(-c2cnn3ccc(N4CCC[C@@H]4c4cc(F)ccc4F)nc23)[nH]1 [Compound 4, (S)-1-(5-(5-((R)-2-(2,5-difluorophenyl)pyrrolidin-1-yl)pyrazolo[1,5-a]pyrimidin-3-yl)-4H-1,2,4-triazol-3-yl)ethan-1-ol]",1.53%,–
"CC(C)(O)c1nnc(-c2cnn3ccc(N4CCC[C@@H]4c4cc(F)ccc4F)nc23)[nH]1 [Compound 7, (R)-2-(5-(5-(2-(2,5-difluorophenyl)pyrrolidin-1-yl)pyrazolo[1,5-a]pyrimidin-3-yl)-4H-1,2,4-triazol-3-yl)propan-2-ol]",8.54%,107 nM
"OC(c1nnc(-c2cnn3ccc(N4CCC[C@@H]4c4cc(F)ccc4F)nc23)[nH]1)C(F)(F)F (stereo partly drawn) [Compound 47, 1-(5-(5-((R)-2-(2,5-difluorophenyl)pyrrolidin-1-yl)pyrazolo[1,5-a]pyrimidin-3-yl)-4H-1,2,4-triazol-3-yl)-2,2,2-trifluoroethan-1-ol]",4.38%,–
